Experimental data: the supplement of paper PMC10307832

Legend:
Test in all cases: relative viability (nuclei count vs DMSO), 5 days (fraction); higher = more cells survive
Doxorubicin + Pemetrexed = compound: COc1cccc2c1C(=O)c1c(O)c3c(c(O)c1C2=O)C[C@@](O)(C(=O)CO)C[C@@H]3O[C@H]1C[C@H](N)[C@H](O)[C@H](C)O1 [Doxorubicin] + Nc1nc2[nH]cc(CCc3ccc(C(=O)N[C@@H](CCC(=O)O)C(=O)O)cc3)c2c(=O)[nH]1 [Pemetrexed] (partner 0.2 µM)
Procedure, shortened: (§1)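 The day after seeding in 1536-well plates, lung cancer cell lines were treated by pin tool with a single drug, or with a fixed anchor-drug dose together with five library-drug doses (not always all listed) in √10 steps. After 5 days, a combined fix-and-stain solution (final 0.05% Triton X-100, 1% formaldehyde, 1 ug/ml Hoechst) was added. Nuclei counted on 4× images gave relative viability as treated counts over vehicle counts, reported as the median of duplicate plates.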

Doxorubicin + Foretinib = compound: COc1cccc2c1C(=O)c1c(O)c3c(c(O)c1C2=O)C[C@@](O)(C(=O)CO)C[C@@H]3O[C@H]1C[C@H](N)[C@H](O)[C@H](C)O1 [Doxorubicin] + COc1cc2c(Oc3ccc(NC(=O)C4(C(=O)Nc5ccc(F)cc5)CC4)cc3F)ccnc2cc1OCCCN1CCOCC1 [Foretinib] (partner 0.25 µM)
Procedure, shortened: as §1

Doxorubicin + Phenformin = compound: COc1cccc2c1C(=O)c1c(O)c3c(c(O)c1C2=O)C[C@@](O)(C(=O)CO)C[C@@H]3O[C@H]1C[C@H](N)[C@H](O)[C@H](C)O1 [Doxorubicin] + N=C(N)NC(=N)NCCc1ccccc1 [Phenformin] (partner 250 µM)
Procedure, shortened: as §1

BAY61-3606 + Pictilisib = compound: COC1=C(C=C(C=C1)C2=CC3=NC=CN3C(=N2)NC4=C(C=CC=N4)C(=O)N)OC [BAY61-3606] + CS(=O)(=O)N1CCN(Cc2cc3nc(-c4cccc5[nH]ncc45)nc(N4CCOCC4)c3s2)CC1 [Pictilisib] (partner 1 µM)
Procedure, shortened: as §1

UMC-11
relative viability (Doxorubicin + Pemetrexed; first compound 0.001 µM): 0.831
relative viability (Doxorubicin + Pemetrexed; first compound 0.003162 µM): 0.901
relative viability (Doxorubicin + Pemetrexed; first compound 0.01 µM): 0.823
relative viability (Doxorubicin + Pemetrexed; first compound 0.03162 µM): 0.645
relative viability (Doxorubicin + Pemetrexed; first compound 0.1 µM): 0.636
relative viability (Doxorubicin + Foretinib; first compound 0.001 µM): 0.963
relative viability (Doxorubicin + Foretinib; first compound 0.003162 µM): 1.02
relative viability (Doxorubicin + Foretinib; first compound 0.01 µM): 1.02
relative viability (Doxorubicin + Foretinib; first compound 0.03162 µM): 0.685
relative viability (Doxorubicin + Foretinib; first compound 0.1 µM): 0.644
relative viability (Doxorubicin + Phenformin; first compound 0.001 µM): 0.307
relative viability (Doxorubicin + Phenformin; first compound 0.003162 µM): 0.247
relative viability (Doxorubicin + Phenformin; first compound 0.01 µM): 0.313
relative viability (Doxorubicin + Phenformin; first compound 0.03162 µM): 0.207
relative viability (Doxorubicin + Phenformin; first compound 0.1 µM): 0.233
relative viability (BAY61-3606 + Pictilisib; first compound 0.02 µM): 0.851
relative viability (BAY61-3606 + Pictilisib; first compound 0.06325 µM): 0.799
relative viability (BAY61-3606 + Pictilisib; first compound 0.2 µM): 0.527
relative viability (BAY61-3606 + Pictilisib; first compound 0.6325 µM): 0.922
relative viability (BAY61-3606 + Pictilisib; first compound 2 µM): 0.622
